Source: patent US5057520A, “7-(peptidylpyrolidinyl)naphthyridine antibacterial compounds” (Abbott Laboratories, priority 1989, dated 1991)
Structures can show the parent of a compound that is named as a salt.

Assays:
[1] = Conversion of prodrug to parent drug in whole blood at 37° C.; type: in vitro ADME, Dog
Experimental: An aqueous solution of prodrug (Z) is spiked into fresh whole blood containing sodium heparin as an anticoagulant. The sample is mixed gently by inversion and placed in a 37° waterbath. At selected time intervals an 0.5 ml aliquot of blood is removed and placed in a chilled 1.5 ml centrifuge tube (ice temperature). Samples are centrifuges at 13,000 rpm for two minutes to separate plasma. An 0.2 ml aliquot of the plasma sample is combined with 0.2 ml internal standard (7-(4-amino-2-methyl-1-pyrrolidinyl)-1-(2,4-difluorophenyl)-6-fluoro-1,4-d ihydro-4-oxo-1,8-naphthyridine-3-carboxylic acid in 0.2M sodium phosphate pH 7.2 buffer) and 6 mls CH2 Cl2 :EtoH (9:1 by volume). Samples are capped and shaken gently for 10 minutes. Samples are centrifuges at 2500 rpm for 10 minutes (4° C.). The aqueous layer is aspirated to waste and the organic layer is transferred to a conical centrifuge tube and evaporated to dryness with a stream of dry air and low heat ([…]). Samples are reconstituted with 0.2 ml mobile phase followed by vortexing. Samples are centrifuges at 2500 rpm for 10 minutes to separate precipitate. The supernatant is transferred to a WISP vial with plastic insert for HPLC analysis.

[2] = system: P. Aeruginosa A5007; assay: Acute mouse protection test; type: in vivo; conditions: mice infected i.p. with P. Aeruginosa A5007, observed 7 days; for SC (ED50): SC dosing at 1 and 5 hours post-infection; for Oral (ED50): oral dosing at 1 and 5 hours post-infection
[3] = system: Stap. Aureus NCTC 10649; assay: Acute mouse protection test; type: in vivo; conditions: mice infected i.p. with Stap. Aureus NCTC 10649, observed 7 days; for SC (ED50): SC dosing at 1 and 5 hours post-infection; for Oral (ED50): oral dosing at 1 and 5 hours post-infection
[4] = system: E. Coli Juhl; assay: Acute mouse protection test; type: in vivo; conditions: mice infected i.p. with E. Coli JUHL, observed 7 days; for SC (ED50): SC dosing at 1 and 5 hours post-infection; for Oral (ED50): oral dosing at 1 and 5 hours post-infection

CC(C)C(N)C(=O)NC1CCN(c2nc3c(cc2F)c(=O)c(C(=O)O)cn3-c2ccc(F)cc2F)C1 (centres unmarked) [Example 19]
Solubility pH 7.4: 0.41 mg/ml

CCCC(N)C(=O)NC1CCN(c2cc3c(cc2F)c(=O)c(C(=O)O)cn3-c2ccc(F)cc2F)C1 (centres unmarked) [Example 26b]
Half Life Dog [1]: 0.723 min | SC (ED50) [2]: 6.7 mg/kg/day | Oral (ED50) [2]: 18.2 mg/kg/day | SC (ED50) [3]: 0.8 mg/kg/day | Oral (ED50) [3]: 27.9 mg/kg/day

CCC[C@H](N)C(=O)NC1CCN(c2nc3c(cc2F)c(=O)c(C(=O)O)cn3CC)C1 (some centres unmarked) [Example 26ff]
Half Life Dog [1]: 1.54 min | SC (ED50) [2]: 10.3 mg/kg/day | Oral (ED50) [2]: 30.5 mg/kg/day

CCCC(N)C(=O)NC1CCN(c2cc3c(cc2F)c(=O)c(C(=O)O)cn3C2CC2)C1 (centres unmarked) [Example 26l]
Half Life Dog [1]: 1.975 min | SC (ED50) [2]: 2.8 mg/kg/day | Oral (ED50) [2]: 18.2 mg/kg/day | SC (ED50) [4]: 0.5 mg/kg/day | Oral (ED50) [4]: 9.4 mg/kg/day | SC (ED50) [3]: 4.0 mg/kg/day

CC(C)CC(N)C(=O)NC1CCN(c2nc3c(cc2F)c(=O)c(C(=O)O)cn3C2CC2)C1 (centres unmarked) [Example 26o]
Half Life Dog [1]: 1.81 min | SC (ED50) [2]: 3.9 mg/kg/day | Oral (ED50) [2]: 6.2 mg/kg/day | SC (ED50) [4]: 0.2 mg/kg/day | Oral (ED50) [4]: 1.2 mg/kg/day | SC (ED50) [3]: 1.0 mg/kg/day | Oral (ED50) [3]: 4.0 mg/kg/day

CCCC(N)C(=O)NC1CCN(c2nc3c(cc2F)c(=O)c(C(=O)O)cn3C2CC2)C1 (centres unmarked) [Example 26p]
Half Life Dog [1]: 1.17 min | SC (ED50) [2]: 2.8 mg/kg/day | Oral (ED50) [2]: 9.1 mg/kg/day | SC (ED50) [3]: 6.8 mg/kg/day | Oral (ED50) [3]: 4.5 mg/kg/day

CCCC(N)C(=O)NC1CCN(c2c(F)cc3c(=O)c(C(=O)O)cn(C4CC4)c3c2F)C1 (centres unmarked) [Example 26r]
Half Life Dog [1]: 1.2 min | SC (ED50) [2]: 2.7 mg/kg/day | Oral (ED50) [2]: 7.3 mg/kg/day | SC (ED50) [4]: 0.2 mg/kg/day | Oral (ED50) [4]: 2.3 mg/kg/day | SC (ED50) [3]: 0.9 mg/kg/day | Oral (ED50) [3]: 3.0 mg/kg/day

CC(N)C(=O)NC1CCN(c2c(F)cc3c(=O)c(C(=O)O)cn(C4CC4)c3c2F)C1 (centres unmarked) [Example 26s]
SC (ED50) [2]: 2.4 mg/kg/day | Oral (ED50) [2]: 5.0 mg/kg/day | SC (ED50) [4]: 0.1 mg/kg/day | Oral (ED50) [4]: 1.8 mg/kg/day | SC (ED50) [3]: 1.3 mg/kg/day | Oral (ED50) [3]: 4.8 mg/kg/day

NC(=O)C[C@H](N)C(=O)NC1CCN(c2nc3c(cc2F)c(=O)c(C(=O)O)cn3-c2ccc(F)cc2F)C1 (stereo partly drawn) [Example 41, 7-(3-L-Asparagine-amino-1-pyrrolidinyl)-1-(2,4-difluorophenyl)-6-fluoro-1,4-dihydro-4-oxo-1,8-naphthyridine-3-carboxylic acid hydrochloride]
SC (ED50) [2]: 2.8 mg/kg/day | Oral (ED50) [2]: 17.2 mg/kg/day | SC (ED50) [3]: 0.7 mg/kg/day | Oral (ED50) [3]: 2.9 mg/kg/day

CSCC[C@H](NC(=O)[C@H](C)N)C(=O)NC1CCN(c2nc3c(cc2F)c(=O)c(C(=O)O)cn3-c2ccc(F)cc2F)C1 (stereo partly drawn) [Example 55n, 7-(3-Ala-Met-amino-1-pyrrolidinyl)-6-fluoro-1-(2,4-difluorophenyl)-1,4-dih ydro-4-oxo-1,8-naphthyridine-3-carboxylic acid]
Solubility pH 7.4: 2.50 mg/ml

CSCC[C@H](NC(=O)[C@@H](N)CCSC)C(=O)NC1CCN(c2nc3c(cc2F)c(=O)c(C(=O)O)cn3-c2ccc(F)cc2F)C1 (stereo partly drawn) [Example 55o, 7-(3-Met-Met-amino-1-pyrrolidinyl)-6-fluoro-1-(2,4-difluorophenyl)-1,4-dih ydro-4-oxo-1,8-naphthyridine-3-carboxylic acid]
Solubility pH 7.4: 0.31 mg/ml

CSCC[C@H](NC(=O)[C@@H](N)CC(C)C)C(=O)NC1CCN(c2nc3c(cc2F)c(=O)c(C(=O)O)cn3-c2ccc(F)cc2F)C1 (stereo partly drawn) [Example 55p, 7-(3-Leu-Met-amino-1-pyrrolidinyl)-6-fluoro-1-(2,4-difluorophenyl)-1,4-dih ydro-4-oxo-1,8-naphthyridine-3-carboxylic acid]
Solubility pH 7.4: 0.06 mg/ml
